Data taken from the NIST ThermoML archive (doi:10.1016/j.jct.2017.06.001).
Numbers after ± are expanded uncertainties.

Assay: xn = mol fraction of the nth substance listed
Conditions: 100 kPa, Liquid; for speed of sound: Frequency=5 MHz, Pulse-echo method; for mass density: Vibrating tube method

OCCCCCO [1,5-pentanediol] + O
Conditions	mass density [kg/m3]	speed of sound [m/s]
288.15 K, x1 = 0.005	998.88 ± 0.53	–
288.15 K, x1 = 0.0101	999.03 ± 1	–
288.15 K, x1 = 0.0196	999.79 ± 1	–
288.15 K, x1 = 0.0251	1000.47 ± 1	–
288.15 K, x1 = 0.0304	1001.25 ± 1	–
288.15 K, x1 = 0.05	1003.56 ± 1	–
288.15 K, x1 = 0.0769	1005.76 ± 1.1	–
288.15 K, x1 = 0.1002	1007.25 ± 1.1	–
288.15 K, x1 = 0.1438	1008.43 ± 1.1	–
288.15 K, x1 = 0.1845	1008.63 ± 1.1	–
288.15 K, x1 = 0.206	–	1706.1 ± 1.3
288.15 K, x1 = 0.2108	–	1706.3 ± 1.3
288.15 K, x1 = 0.2162	–	1706.4 ± 1.3
288.15 K, x1 = 0.2177	–	1706.4 ± 1.3
288.15 K, x1 = 0.2203	–	1706.5 ± 1.3
288.15 K, x1 = 0.2319	–	1706.5 ± 1.3
288.15 K, x1 = 0.2402	–	1706.4 ± 1.3
288.15 K, x1 = 0.25	–	1706.2 ± 1.3
288.15 K, x1 = 0.2503	1007.9 ± 1.2	–
288.15 K, x1 = 0.2599	–	1706 ± 1.4
288.15 K, x1 = 0.2695	–	1705.6 ± 1.4
288.15 K, x1 = 0.283	–	1705 ± 1.4
288.15 K, x1 = 0.3	1006.94 ± 1.2	–
288.15 K, x1 = 0.3004	–	1704.1 ± 1.4
288.15 K, x1 = 0.3171	–	1703 ± 1.4
288.15 K, x1 = 0.3343	1006.2 ± 1.3	–
288.15 K, x1 = 0.3398	–	1701.4 ± 1.4
288.15 K, x1 = 0.3601	–	1699.8 ± 1.4
288.15 K, x1 = 0.3882	–	1697.2 ± 1.5
288.15 K, x1 = 0.4171	1004.47 ± 1.4	–
288.15 K, x1 = 0.4185	–	1694.2 ± 1.5
288.15 K, x1 = 0.4484	–	1690.8 ± 1.6
288.15 K, x1 = 0.454	1003.59 ± 1.4	–
288.15 K, x1 = 0.4755	–	1687.5 ± 1.6
288.15 K, x1 = 0.4893	–	1685.8 ± 1.6
288.15 K, x1 = 0.5003	1002.5 ± 1.5	–
288.15 K, x1 = 0.508	–	1683.4 ± 1.6
288.15 K, x1 = 0.5305	–	1680.3 ± 1.6
288.15 K, x1 = 0.5362	1001.6 ± 1.5	–
288.15 K, x1 = 0.5516	–	1677.4 ± 1.7
288.15 K, x1 = 0.5741	–	1674.2 ± 1.7
288.15 K, x1 = 0.5932	–	1671.5 ± 1.7
288.15 K, x1 = 0.6177	999.9 ± 1.7	–
288.15 K, x1 = 0.6187	–	1667.9 ± 1.8
288.15 K, x1 = 0.6383	–	1665 ± 1.8
288.15 K, x1 = 0.6478	999.3 ± 1.7	–
288.15 K, x1 = 0.6592	–	1662.1 ± 1.8
288.15 K, x1 = 0.6819	–	1658.9 ± 1.8
288.15 K, x1 = 0.7025	998.2 ± 1.8	–
288.15 K, x1 = 0.7043	–	1655.7 ± 1.9
288.15 K, x1 = 0.7236	–	1653.1 ± 1.9
288.15 K, x1 = 0.7443	–	1650.3 ± 1.9
288.15 K, x1 = 0.7504	997.4 ± 1.9	–
288.15 K, x1 = 0.7647	–	1647.6 ± 2
288.15 K, x1 = 0.7836	–	1645.2 ± 2
288.15 K, x1 = 0.7927	996.5 ± 2	–
288.15 K, x1 = 0.8018	–	1642.8 ± 2
288.15 K, x1 = 0.8231	–	1640.1 ± 2
288.15 K, x1 = 0.8417	–	1637.8 ± 2.1
288.15 K, x1 = 0.8605	995.2 ± 2.1	–
288.15 K, x1 = 0.8609	–	1635.4 ± 2.1
288.15 K, x1 = 0.8783	–	1633.2 ± 2.1
288.15 K, x1 = 0.8967	–	1630.9 ± 2.1
288.15 K, x1 = 0.9004	994.4 ± 2.2	–
288.15 K, x1 = 0.9133	–	1628.7 ± 2.2
288.15 K, x1 = 0.9388	–	1625.3 ± 2.2
288.15 K, x1 = 0.9496	993.3 ± 2.3	–
288.15 K, x1 = 0.9515	–	1623.6 ± 2.2
288.15 K, x1 = 0.9651	–	1621.7 ± 2.3
288.15 K, x1 = 0.9837	–	1618.9 ± 2.3
288.15 K, x1 = 1	992.2 ± 2.1	1616.4 ± 2.3
293.15 K, x1 = 0.0002	–	1483 ± 1.1
293.15 K, x1 = 0.0004	–	1483.8 ± 1.1
293.15 K, x1 = 0.0005	–	1484.4 ± 1.1
293.15 K, x1 = 0.0008	–	1485.6 ± 1.1
293.15 K, x1 = 0.0012	–	1487 ± 1.1
293.15 K, x1 = 0.0017	–	1489 ± 1.1
293.15 K, x1 = 0.0021	–	1490.8 ± 1.1
293.15 K, x1 = 0.0029	–	1493.7 ± 1.1
293.15 K, x1 = 0.0037	–	1496.8 ± 1.1
293.15 K, x1 = 0.0043	–	1499.2 ± 1.1
293.15 K, x1 = 0.005	–	1501.8 ± 1.1
293.15 K, x1 = 0.0057	–	1504.5 ± 1.1
293.15 K, x1 = 0.0064	–	1506.9 ± 1.1
293.15 K, x1 = 0.0071	–	1509.3 ± 1.1
293.15 K, x1 = 0.0078	–	1511.9 ± 1.1
293.15 K, x1 = 0.0085	–	1514.3 ± 1.2
293.15 K, x1 = 0.0091	–	1516.7 ± 1.2
293.15 K, x1 = 0.0098	–	1519 ± 1.2
293.15 K, x1 = 0.0107	–	1522 ± 1.2
293.15 K, x1 = 0.0113	–	1524.2 ± 1.2
293.15 K, x1 = 0.012	–	1526.6 ± 1.2
293.15 K, x1 = 0.0128	–	1529.1 ± 1.2
293.15 K, x1 = 0.0136	–	1531.6 ± 1.2
293.15 K, x1 = 0.0143	–	1534 ± 1.2
293.15 K, x1 = 0.015	–	1536.2 ± 1.2
293.15 K, x1 = 0.0158	–	1538.5 ± 1.2
293.15 K, x1 = 0.0165	–	1540.7 ± 1.2
293.15 K, x1 = 0.0172	–	1543 ± 1.2
293.15 K, x1 = 0.018	–	1545.3 ± 1.2
293.15 K, x1 = 0.0189	–	1547.8 ± 1.2
293.15 K, x1 = 0.0198	–	1550.5 ± 1.2
293.15 K, x1 = 0.0206	–	1552.8 ± 1.2
293.15 K, x1 = 0.0214	–	1555.3 ± 1.2
293.15 K, x1 = 0.0224	–	1557.8 ± 1.2
293.15 K, x1 = 0.0232	–	1560.2 ± 1.2
293.15 K, x1 = 0.0241	–	1562.7 ± 1.2
293.15 K, x1 = 0.0254	–	1566 ± 1.2
293.15 K, x1 = 0.0263	–	1568.5 ± 1.2
293.15 K, x1 = 0.0276	–	1571.6 ± 1.2
293.15 K, x1 = 0.0285	–	1573.9 ± 1.2
293.15 K, x1 = 0.0294	–	1576.1 ± 1.2
293.15 K, x1 = 0.0302	–	1578.2 ± 1.2
293.15 K, x1 = 0.0314	–	1580.8 ± 1.2
293.15 K, x1 = 0.0323	–	1583.1 ± 1.2
293.15 K, x1 = 0.0333	–	1585.3 ± 1.2
293.15 K, x1 = 0.0343	–	1587.6 ± 1.2
293.15 K, x1 = 0.0355	–	1590.1 ± 1.2
293.15 K, x1 = 0.0368	–	1592.9 ± 1.2
293.15 K, x1 = 0.0383	–	1596.3 ± 1.2
293.15 K, x1 = 0.0398	–	1599.2 ± 1.2
293.15 K, x1 = 0.0408	–	1601.4 ± 1.2
293.15 K, x1 = 0.0418	–	1603.3 ± 1.2
293.15 K, x1 = 0.0435	–	1606.5 ± 1.2
293.15 K, x1 = 0.0451	–	1609.5 ± 1.2
293.15 K, x1 = 0.0472	–	1613.3 ± 1.2
293.15 K, x1 = 0.0491	–	1616.6 ± 1.2
293.15 K, x1 = 0.0506	–	1619.2 ± 1.2
293.15 K, x1 = 0.0528	–	1622.7 ± 1.2
293.15 K, x1 = 0.0552	–	1626.4 ± 1.2
293.15 K, x1 = 0.0569	–	1629 ± 1.2
293.15 K, x1 = 0.0599	–	1633.3 ± 1.2
293.15 K, x1 = 0.0612	–	1635.1 ± 1.2
293.15 K, x1 = 0.0629	–	1637.4 ± 1.2
293.15 K, x1 = 0.0645	–	1639.4 ± 1.2
293.15 K, x1 = 0.0665	–	1641.9 ± 1.2
293.15 K, x1 = 0.0684	–	1644.3 ± 1.2
293.15 K, x1 = 0.0711	–	1647.4 ± 1.2
293.15 K, x1 = 0.0738	–	1650.3 ± 1.2
293.15 K, x1 = 0.077	–	1653.6 ± 1.2
293.15 K, x1 = 0.08	–	1656.5 ± 1.2
293.15 K, x1 = 0.0837	–	1659.9 ± 1.2
293.15 K, x1 = 0.0871	–	1662.8 ± 1.2
293.15 K, x1 = 0.0895	–	1664.7 ± 1.2
293.15 K, x1 = 0.0944	–	1668.3 ± 1.2
293.15 K, x1 = 0.0974	–	1670.4 ± 1.2
293.15 K, x1 = 0.1023	–	1673.5 ± 1.2
293.15 K, x1 = 0.1068	–	1676.1 ± 1.2
293.15 K, x1 = 0.1108	–	1678.1 ± 1.2
293.15 K, x1 = 0.1168	–	1680.9 ± 1.2
293.15 K, x1 = 0.121	–	1682.7 ± 1.2
293.15 K, x1 = 0.1249	–	1684.1 ± 1.2
293.15 K, x1 = 0.1295	–	1685.7 ± 1.2
293.15 K, x1 = 0.1356	–	1687.5 ± 1.2
293.15 K, x1 = 0.1401	–	1688.7 ± 1.3
293.15 K, x1 = 0.1445	–	1689.8 ± 1.3
293.15 K, x1 = 0.1521	–	1691.3 ± 1.3
